Common to all, as to format: cell-based
Assay [1] relates to PPARγ. Briefly: PPARγ protein abundance in 3T3-L1 adipocytes. As to conditions: 0, 1 or 5 μM ATD. The method, then: FIG. 10 is a graph showing ATD inhibits PPARγ protein abundance. 3T3-L1 adipocytes were transfected with a null vector (V5), and exposed to 10 μM TZD, or transfected with a plasmid expressing E4orf1 protein. Both groups were exposed to […] ATD.
(§1) 3T3-L1 adipocytes were transfected with a null vector and exposed to 10 μM TZD, or transfected with a plasmid expressing E4orf1 protein. Both groups were exposed to 0, 1 or 5 μM ATD. […] The glucose uptake in adipocytes was PPARγ-dependent in the presence of TZD, but not when induced by E4orf1. Thus, by down-regulating AKT-1 signaling E4orf1 can be used to enhance glucose uptake by adipocytes, without further increasing lipid accumulation.

Another assay deals with 3T3-L1 cells. In words: Adipogenic differentiation by oil red O staining in inducible E4orf1 stable cell line. As to conditions: 3T3-L1 cells expressing Ad36 E4orf1 on doxycycline; 0, 1, or 5 M of 2ATD; up to nine days. The procedure:
FIG. 7A-F are photomicrographs of 3T3-L1 cells. […] FIGS. 7D-F show 3T3-L1 cells that express Ad36 E4orf1 when exposed to doxycycline, treated with 0, 1, or 5 M, respectively, of 2ATD—a specific inhibitor of AKT1 signalling.
3T3-L1 cells that express Ad36 E4orf1 when exposed to doxycycline (10) were generated. […] Confluent E4orf1 and pTRE cells were exposed to adipogenic media to induce differentiation. In addition the cells were treated with 0, 1 or 5 M of 2ATD—a specific inhibitor of AKT1 signalling. This media was refreshed every two days for up to nine days. Adipogenic differentiation was verified by oil red O staining (FIGS. 7A-F).

For a further assay, the system named is adiponectin. Briefly: Adiponectin expression by qRT-PCR in E4orf1 and pTRE cells. The procedure: (§2) Confluent E4orf1 and pTRE cells were exposed to adipogenic media to induce differentiation. In addition the cells were treated with 0 or 5 μM of 2ATD—a specific inhibitor of AKT1 signalling. This media was refreshed every two days for up to nine days. Basal and insulin stimulated 2DG uptake was determined 24 hours post induction in the presence of 1000 ng/ml of doxycycline expression of PPARγ and adiponectin—markers of adipogenesis, by qRT-PCR.

Assay [2] deals with PPARγ. Briefly: PPARγ expression by qRT-PCR in E4orf1 and pTRE cells. The procedure: as §2
In general terms: Quantitative PCR measures a nucleic acid by following its amplification.

The test system of another assay is 3T3-L1 adipocytes. Briefly: Glucose uptake in 3T3-L1 adipocytes exposed to ATD. To be noted: null vector, 10 μM TZD; increasing concentration of ATD (0, 1 or 5 μM). The procedure:
as §1

Assay [3] relates to E4orf1 and pTRE inducible stable cells. Briefly: Basal and insulin stimulated glucose (2DG) uptake in presence of 2-ATD. The procedure:
E4orf1 and pTRE inducible stable cells were exposed to adipogenic media to induce differentiation and treated with 0 or 5 μM of 2-ATD. Basal and insulin stimulated 2DG was determined 24 hours after exposure to doxycycline (1000 ng/ml), in presence or absence of insulin (*p<0.05).

Where [4] appears, read: E4orf1 expressing cells, 0 or 5 μM of 2ATD.
Setting [5] is: effect of E4orf1 expression (doxycycline 1000 ng/ml), qRT-PCR.

For `Nc1nncs1` [2-ATD, 2-Aminothiadiazole], the PPARγ protein abundance entry with PPARγ [1] is recorded as “reduced PPARγ protein abundance”. The “adipogenesis and lipid accumulation (oil red O staining)” value with 3T3-L1 cells is “blocked adipogenesis and lipid accumulation”. In addition, the adiponectin expression result in the assay on adiponectin (setting [4]) is “significantly reduced”. In addition, the PPARγ expression result in the assay with PPARγ [2] (setting [4]) is recorded as “significantly reduced PPARγ expression”; in the assay on PPARγ [2] (pTRE cells, 0 or 5 μM of 2ATD) it was “significantly reduced PPARγ expression”. For the same molecule, the glucose uptake entry with 3T3-L1 adipocytes is recorded as “significantly reduced glucose uptake”.

B1: E4orf1: Adenovirus-36 E4orf1 protein, SEQ ID NO:2; expressed in 3T3-L1 cells by doxycycline induction or plasmid (protein, listed as Human adenovirus)
chain: MAESLYAFIDSPGGIAPVQEGASNRYIFFCPESFHIPPHGVILLHLRVSVLVPTGYQGRFMALNDYHARGILTQSDVIFAGRRHDLSVLLFNHTDRFLYVREGHPVGTLLLERVIFPSVRIATLV
As to B1, the “glucose uptake (2DG) despite 2-ATD treatment” value in assay [3] (E4orf1 expressing cells treated with 5 μM of 2-ATD) is on record as “continued to show significantly greater glucose uptake”. Further, the “glucose uptake (2DG)” value in assay [3] (E4orf1 expression compared to pTRE, 24 hours after doxycycline (1000 ng/ml), basal and insulin stimulated) is reported as “increased glucose uptake compared to that in pTRE”. Also, the adiponectin expression result in the assay on adiponectin (setting [5]) was “significantly increased the expression of PPARγ and adiponectin”. The PPARγ expression entry in the assay on PPARγ [2] (setting [5]) is “significantly increased the expression of PPARγ and adiponectin”.
